Results: publication PMC3933693, “Novel Inhibitors of Mitochondrial sn-Glycerol 3-phosphate Dehydrogenase” (PLoS ONE, 2014)

What was measured:
mGPDH = biological target: T1, mGPDH (Rattus norvegicus, UniProt P35571); assay: Superoxide/H2O2 production by mGPDH in isolated skeletal muscle mitochondria (Amplex UltraRed); assay type: biochemical; settings: for mGPDH (% change from DMSO): primary screen, ∼2.5 µM, average of duplicates, 16.7 mM glycerol phosphate, no added calcium
T1 construct: Activity of mGPDH in frozen-thawed skeletal muscle mitochondria was measured; from tissue; host or cells: skeletal muscle mitochondria
T1 sequence (P35571 43-727): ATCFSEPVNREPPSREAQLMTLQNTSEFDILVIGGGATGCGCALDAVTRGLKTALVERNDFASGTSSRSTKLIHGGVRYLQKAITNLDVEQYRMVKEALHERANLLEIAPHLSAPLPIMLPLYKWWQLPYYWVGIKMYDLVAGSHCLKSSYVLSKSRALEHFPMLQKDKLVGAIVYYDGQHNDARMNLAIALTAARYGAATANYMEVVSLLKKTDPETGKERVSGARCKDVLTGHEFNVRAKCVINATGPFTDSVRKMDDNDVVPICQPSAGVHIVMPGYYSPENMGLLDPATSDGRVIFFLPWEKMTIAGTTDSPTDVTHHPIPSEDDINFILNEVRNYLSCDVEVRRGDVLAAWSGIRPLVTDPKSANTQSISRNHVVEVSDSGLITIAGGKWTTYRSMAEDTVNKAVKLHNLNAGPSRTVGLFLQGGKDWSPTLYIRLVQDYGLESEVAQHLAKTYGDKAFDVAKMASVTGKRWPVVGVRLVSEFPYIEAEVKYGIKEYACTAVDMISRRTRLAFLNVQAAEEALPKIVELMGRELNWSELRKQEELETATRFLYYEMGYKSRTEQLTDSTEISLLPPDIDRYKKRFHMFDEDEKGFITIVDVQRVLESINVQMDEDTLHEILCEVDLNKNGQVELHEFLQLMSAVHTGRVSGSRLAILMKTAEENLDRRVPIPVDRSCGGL

[1] = test system: flavin mononucleotide site of complex I (site IF) plus matrix NAD-linked dehydrogenases (site IF/DH); assay: Site-specific H2O2 production from site IF/DH in skeletal muscle mitochondria; assay type: biochemical, rat; settings: primary screen, ∼2.5 µM, average of duplicates
Method: (§1) Superoxide was measured as H2O2 after dismutation by endogenous or exogenous superoxide dismutase. Rates of total superoxide/H2O2 production were measured fluorimetrically using Amplex UltraRed in the presence of exogenous superoxide dismutase and horseradish peroxidase in a Varian Cary Eclipse fluorimeter as previously described. Rates of production from specific sites were determined as previously described using the following eight conditions: flavin mononucleotide site of complex I (site IF) plus matrix NAD-linked dehydrogenases (collectively "site IF/DH") with 5 mM glutamate, 5 mM malate, and 4 µM rotenone; ubiquinone-binding site of complex I (site IQ) with either 0.5 or 5 mM succinate; flavin site of complex II (site IIF) with either 15 µM palmitoylcarnitine, 2.5 µM antimycin A, and 2 µM myxothiazol or 0.5 mM succinate, 4 µM rotenone, 2.5 µM antimycin A, and 2 µM myxothiazol, [31]; mGPDH with 1.7 mM glycerol phosphate, 4 µM rotenone, 2.5 µM antimycin A, 2 µM myxothiazol, 1 mM malonate, and 250 nM free calcium; outer ubiquinone-binding site of complex III (site IIIQo) with either 0.5 or 5 mM succinate, 4 µM rotenone and 2.5 µM antimycin A [32]. Candidate small-molecule inhibitors were added prior to the start of measurements and H2O2 calibration curves were performed in the presence of tested compounds.
(§2) 3,200 compounds were tested initially at 2.5 µM (0.025% DMSO final) in duplicate on different plates against a panel of five distinct assays of site-specific superoxide/H2O2 production as described in the previous section with minor changes. […] Endpoint fluorescence was measured on a Perkin Elmer Victor V3 fluorescent plate reader. The fluorescence intensity of each well was normalized as % change from the average of eight DMSO controls on the same plate. Duplicate wells of each of four modulators of mitochondrial metabolism known to inhibit specific sites of superoxide/H2O2 production were included on each plate as positive controls and the resulting fluorescence levels set as −100% change from DMSO controls. Known inhibitors included 20 mM aspartate (for site IF/DH), 1 µM FCCP (for site IQ), 10 mM malonate (for site IIF), and 2 µM myxothiazol (for site IIIQo). The background fluorescence of the FCCP wells in the site IQ assay was used to normalize mGPDH plates run in parallel. To minimize position-dependent effects across each assay plate, Tukey’s two-way median polish was applied to fluorescence values after initial normalization, [36]. Tukey’s polish is an iterative subtraction of the median row and column values from each well’s given row or column. The procedure is repeated until sequential medians for each row and column are zero and positional gradients in fluorescence are eliminated.

[2] = test system: ubiquinone-binding site of complex I (site IQ); assay: Site-specific H2O2 production from site IQ in skeletal muscle mitochondria; assay type: biochemical, rat; settings: primary screen, ∼2.5 µM, average of duplicates; 5 mM succinate;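 note: H2O2 from superoxide detected by Amplex UltraRed fluorescence with added superoxide dismutase and horseradish peroxidase, endpoint read 30–40 min after substrate addition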
Method: Superoxide was measured as H2O2 after dismutation by endogenous or exogenous superoxide dismutase. Rates of total superoxide/H2O2 production were measured fluorimetrically using Amplex UltraRed in the presence of exogenous superoxide dismutase and horseradish peroxidase in a Varian Cary Eclipse fluorimeter as previously described [27]. Rates of production from specific sites were determined as previously described using the following eight conditions: flavin mononucleotide site of complex I (site IF) plus matrix NAD-linked dehydrogenases (collectively "site IF/DH") with 5 mM glutamate, 5 mM malate, and 4 µM rotenone [28]; ubiquinone-binding site of complex I (site IQ) with either 0.5 or 5 mM succinate [29]; flavin site of complex II (site IIF) with either 15 µM palmitoylcarnitine, 2.5 µM antimycin A, and 2 µM myxothiazol or 0.5 mM succinate, 4 µM rotenone, 2.5 µM antimycin A, and 2 µM myxothiazol [30], [31]; mGPDH with 1.7 mM glycerol phosphate, 4 µM rotenone, 2.5 µM antimycin A, 2 µM myxothiazol, 1 mM malonate, and 250 nM free calcium; outer ubiquinone-binding site of complex III (site IIIQo) with either 0.5 or 5 mM succinate, 4 µM rotenone and 2.5 µM antimycin A [32]. Candidate small-molecule inhibitors were added prior to the start of measurements and H2O2 calibration curves were performed in the presence of tested compounds.
3,200 compounds were tested initially at 2.5 µM (0.025% DMSO final) in duplicate on different plates against a panel of five distinct assays of site-specific superoxide/H2O2 production as described in the previous section with minor changes. […] Endpoint fluorescence was measured on a Perkin Elmer Victor V3 fluorescent plate reader. The fluorescence intensity of each well was normalized as % change from the average of eight DMSO controls on the same plate. Duplicate wells of each of four modulators of mitochondrial metabolism known to inhibit specific sites of superoxide/H2O2 production were included on each plate as positive controls and the resulting fluorescence levels set as −100% change from DMSO controls. Known inhibitors included 20 mM aspartate (for site IF/DH), 1 µM FCCP (for site IQ), 10 mM malonate (for site IIF), and 2 µM myxothiazol (for site IIIQo). The background fluorescence of the FCCP wells in the site IQ assay was used to normalize mGPDH plates run in parallel. To minimize position-dependent effects across each assay plate, Tukey’s two-way median polish was applied to fluorescence values after initial normalization [35], [36]. Tukey’s polish is an iterative subtraction of the median row and column values from each well’s given row or column. The procedure is repeated until sequential medians for each row and column are zero and positional gradients in fluorescence are eliminated.
These 20 compounds were tested in duplicate at 0.08–80 µM (0.1% DMSO final) in microplate format for effects on site-specific H2O2 production as described above. […] Plates were incubated in the dark at room temperature for 30–40 min (H2O2) or 10–15 min (ΔΨm) after the addition of substrate, and endpoint fluorescence was measured on the Victor plate reader. Endpoints were chosen for the H2O2 assays to provide good signal-to-noise ratios and linear rates of change without the indicator dye limiting the reaction.

[3] = test system: skeletal muscle mitochondria; assay: Mitochondrial membrane potential (ΔΨm, TMRM) powered by glutamate plus malate; assay type: biochemical, rat; settings: primary screen, ∼2.5 µM, average of duplicates; glutamate and malate
Method: Mitochondrial membrane potential (ΔΨm) was estimated fluorimetrically as described previously [33] on the Varian fluorimeter, except the potentiometric dye TMRM was used in quench-mode in place of safranine O [34]. […] The effect of putative small-molecule inhibitors was normalized as the % change in fluorescence between vehicle treatment and complete depolarization by the uncoupler carbonyl cyanide-4-(trifluoromethoxy)phenylhydrazone (FCCP, 2 µM) added at the end of each run. When indicated, the K^+/H^+ exchanger nigericin (80 ng ⋅ ml^−1) was added to collapse the pH gradient across the mitochondrial inner membrane (ΔpH) and maximize ΔΨm.
All assays were performed with stirring at 37°C.
Additionally, four microplate assays for ΔΨm were run in parallel to the H2O2 assays. These assays were as described under “Measurement of mitochondrial H2O2 production and membrane potential” except that each substrate condition was assayed in a separate microplate. […] Plates were incubated in the dark at room temperature for 30–40 min (H2O2) or 10–15 min (ΔΨm) after the addition of substrate, and endpoint fluorescence was measured on the Victor plate reader. […] Endpoints for the ΔΨm assays were determined in pilot experiments as the times for TMRM accumulation to reach a steady state. At room temperature, this was typically ∼ 5 min and remained stable for at least 30 min. Endpoint fluorescence values were normalized as described in the previous section with wells containing FCCP serving as positive controls for the ΔΨm assays.

[4] = biological target: T2, outer ubiquinone-binding site of complex III (site IIIQo) (Rattus norvegicus, UniProt P00159+P20788); assay: Site-specific H2O2 production from site IIIQo in skeletal muscle mitochondria; assay type: biochemical; settings: primary screen, ∼2.5 µM, average of duplicates; 5 mM succinate
T2 construct: from tissue; host or cells: skeletal muscle mitochondria
Method: as §1, §2

[5] = biological target: T3, flavin site of complex II (site IIF) (Rattus norvegicus, UniProt Q920L2); assay: Site-specific H2O2 production from site IIF in skeletal muscle mitochondria; assay type: biochemical; settings: primary screen, ∼2.5 µM, average of duplicates; palmitoylcarnitine
T3 construct: from tissue; host or cells: skeletal muscle mitochondria
Method: as §1, §2

T3 sequence (Q920L2 35-656): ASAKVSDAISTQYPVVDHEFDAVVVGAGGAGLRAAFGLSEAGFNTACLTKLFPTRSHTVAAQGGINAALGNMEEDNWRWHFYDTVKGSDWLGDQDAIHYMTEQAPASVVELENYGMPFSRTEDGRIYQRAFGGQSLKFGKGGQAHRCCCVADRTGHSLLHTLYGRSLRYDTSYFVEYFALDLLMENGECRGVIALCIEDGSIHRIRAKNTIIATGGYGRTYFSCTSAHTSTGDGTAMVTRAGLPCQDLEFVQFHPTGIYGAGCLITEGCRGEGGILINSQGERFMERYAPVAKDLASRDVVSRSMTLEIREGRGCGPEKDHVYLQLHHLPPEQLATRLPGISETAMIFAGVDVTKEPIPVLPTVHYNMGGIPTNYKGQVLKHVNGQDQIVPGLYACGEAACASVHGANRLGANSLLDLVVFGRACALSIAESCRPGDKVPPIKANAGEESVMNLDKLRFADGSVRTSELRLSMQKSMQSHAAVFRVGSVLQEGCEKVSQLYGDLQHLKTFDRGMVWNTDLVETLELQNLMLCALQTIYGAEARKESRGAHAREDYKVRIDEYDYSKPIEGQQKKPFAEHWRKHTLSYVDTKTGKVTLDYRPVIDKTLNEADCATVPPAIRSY
T3 sequence (P21913 31-282 partner): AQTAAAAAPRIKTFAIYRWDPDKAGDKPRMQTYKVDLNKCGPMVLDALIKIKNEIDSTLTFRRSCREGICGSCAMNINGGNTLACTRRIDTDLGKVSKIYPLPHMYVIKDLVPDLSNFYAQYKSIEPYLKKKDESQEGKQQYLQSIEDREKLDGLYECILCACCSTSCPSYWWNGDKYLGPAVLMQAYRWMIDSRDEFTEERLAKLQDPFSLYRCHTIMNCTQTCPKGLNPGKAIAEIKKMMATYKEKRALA
T3 sequence (Q641Z9 30-169 partner limits assumed): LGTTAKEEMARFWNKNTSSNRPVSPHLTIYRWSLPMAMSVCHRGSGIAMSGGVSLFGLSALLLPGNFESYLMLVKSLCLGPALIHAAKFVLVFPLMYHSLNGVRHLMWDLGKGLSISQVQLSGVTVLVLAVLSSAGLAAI
T3 sequence (Q6PCT8 57-159 partner): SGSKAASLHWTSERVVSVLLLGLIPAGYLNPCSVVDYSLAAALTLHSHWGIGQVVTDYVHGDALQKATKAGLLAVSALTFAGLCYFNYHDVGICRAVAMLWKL

| Structure (SMILES) | effect on the rate of H2O2 production from mGPDH (mGPDH; compared with glyceraldehyde 3-phosphate, Fig. 2A) | IF/DH (% change from DMSO) [1] [%] | IQ (% change from DMSO) [2] [%] | ΔΨm (% change from DMSO) [3] [%] | IIIQo (% change from DMSO) [4] [%] | IIF (% change from DMSO) [5] [%] | mGPDH (% change from DMSO) (mGPDH) [%] |
| --- | --- | --- | --- | --- | --- | --- | --- |
| O=C(CO)COP(=O)(O)O [DHAP, dihydroxyacetone phosphate, reference compound] | less effective |  |  |  |  |  |  |
| Nc1cc(S(=O)(=O)c2ccc(O)c(N)c2)ccc1O [compound 5105145] |  | -62.0 | -49.7 | -1.2 | -48.5 | -62.7 | -37.3 |
| NC(=O)Cc1c[nH]c2cccc(O)c12 [compound 5106694] |  | -39.7 | -49.2 | 0.127 | -48.1 | -58.5 | -32.1 |
| O=C1c2ccccc2C(=O)N1CCc1c[nH]c2ccc(O)cc12 [compound 5106791] |  | -33.6 | -44.7 | 0.466 | -35.4 | -42.5 | -16.2 |
| COc1ccc(NCc2ccccc2)cc1 [compound 5107549] |  | -41.3 | -27.5 | 0.3 | -6.9 | -44.6 | -28.0 |
| O=[N+]([O-])c1ccc2[nH]c(-c3ccccc3)cc2c1 [compound 5107950] |  | -58.4 | -70.5 | -14.4 | 46.2 | -18.1 | -19.8 |
| CCCCc1c(C(=O)O)cc(C)cc1C(=O)O [compound 5119061] |  | -13.1 | -6.2 | 0.737 | -6.2 | -5.7 | -10.0 |
| Nc1ccc(-c2nc3ccc(N)cc3[nH]2)cc1 [compound 5137121] |  | -89.7 | -61.6 | 1.1 | -73.9 | -106.6 | -72.6 |
| CC(C)CSC(CC(=O)O)C(=O)O (stereo not shown) [compound 5152843] |  | -19.0 | -6.2 | -0.119 | -15.7 | -7.8 | -10.7 |
| O=S(=O)(Nc1ccc(O)c(Br)c1)c1ccc(Cl)cc1 [compound 5158529] |  | -54.3 | -50.5 | -0.4 | -42.6 | -47.6 | -23.5 |
| O=C1N=C(c2ccccc2)C(c2ccccc2)N1 (stereo not shown) [compound 5162292] |  | -7.5 | -4.2 | -2.7 | -23.8 | -24.8 | -13.1 |
| COc1ccc(NCCNc2ccc(OC)cc2)cc1 [compound 5174308] |  | -73.0 | -49.0 | 0.352 | -30.1 | -50.8 | -37.5 |
| Nc1ccccc1S(=O)(=O)Nc1cccc2cccnc12 [compound 5175136] |  | -42.5 | -18.9 | 0.113 | 9.1 | -14.5 | -16.1 |
| Nc1cc(C(=O)O)c(N)cc1C(=O)O [compound 5180162] |  | -5.6 | -6.3 | -0.24 | -3.2 | -10.7 | -10.8 |
| O=C(Cc1ccccc1)Nc1cc(C(=O)O)c(NC(=O)Cc2ccccc2)cc1C(=O)O [compound 5181020] |  | -40.9 | -35.6 | 0.05 | -32.7 | -39.7 | -31.6 |
| CC(=O)N(C)c1ccc(NC(=O)c2ccc(-c3ccccc3)cc2)cc1 [compound 5191683] |  | -3.4 | -6.3 | 0.5 | -9.7 | -1.2 | -10.7 |
| CN(C)c1nc2ccc(O)cc2s1 [compound 5195231] |  | -166.4 | -66.7 | 0.4 | -41.2 | -110.1 | -68.8 |
| CC(C)c1nnc(NC(=O)c2cccc([N+](=O)[O-])c2)s1 [compound 5210298] |  | -36.0 | -67.3 | -4.4 | 4.3 | -17.8 | -17.8 |
| Cc1ccc(NC(=O)c2ccc(C(C)(C)C)cc2)cc1 [compound 5210384] |  | 6.3 | 1.4 | -1.1 | 11.8 | -0.156 | -11.4 |
| COc1ccc(O)c(CN2CCC(N3CCCCC3)CC2)c1 [compound 5410291] |  | -15.5 | -18.2 | -0.0836 | -19.0 |  | -18.0 |
| COc1cc(CN2CCOCC2)ccc1O [compound 5423875] |  | -12.7 | -20.0 | 0.5 | -15.0 |  | -11.3 |
| CCN1CCN(C/C=C/c2ccc(N(C)C)cc2)CC1 [compound 5424907] |  | -6.5 | -2.9 | 0.00666 | -5.7 |  | -13.4 |
